From US8551966B2, “Chemical compounds” (priority 2011, dated 2013)
Like-named read-outs stand apart in the source and are kept apart here.

Columns and labels:
[1] = test system: recombinant vaccinia virus strain WR (VACV-WR) 'v3' expressing firefly luciferase, in RK13 cells; assay: microbe, parasite or virus in culture; type: cell-based; details: for activity at 10 µM: Orthopoxvirus vaccinia, RK-13, 2 h, read-out: VV % activity at 10 μM (a)
[2] = test system: wildtype measles virus strain WTFb in B95a marmoset B lymphocytes; assay: Measles syncytium reduction assay; type: cell-based; details: for Measles IC100/μM (b): concentration giving total suppression of syncytia formation, B95a cells, 50 syncytium forming units per well; for potency with respect to measles virus: statement in words on Table I data
VACV-WR in BSC-1 cells = assay: microbe, parasite or virus in culture; type: cell-based, vaccinia virus; details: read-out: VV plaque size IC50 μM (c)

Compound | activity at 10 µM [1] [%] | other results
CCCCCCOCCCCCCCCCc1cc2cn([C@@H]3CC[C@H](CO)O3)c(=O)nc2o1 [Cf 3209, 3-(2′,3′-dideoxy-ribo-β-L-furanosyl)-6-hexyloxynonylfuro[2,3-d]pyrimidin-2(3H)-one] | 46 | 
CCCCCOCCCCCCCCCc1cc2cn([C@H]3CC[C@@H](CO)O3)c(=O)nc2o1 [Cf 2095, reference compound] |  | VV % activity at 10 μM (a) [1]: 75%; Measles IC100/μM (b) [2]: Inactive; potency with respect to measles virus [2]: inactive; IC50 (VACV-WR in BSC-1 cells): 1.5 µM
CCCCCCc1cc2cn([C@@H]3CC[C@H](CO)O3)c(=O)nc2o1 [Cf 3153, 3-(2′,3′-dideoxy-ribo-β-L-furanosyl)-6-hexylfuro[2,3-d]pyrimidin-2(3H)-one] | 50 | 
CCCCCCOCCCCCCCCc1cc2cn([C@@H]3CC[C@H](CO)O3)c(=O)nc2o1 [Cf 3230, 3-(2′,3′-dideoxy-ribo-β-L-furanosyl)-6-hexyloxyoctylfuro[2,3-d]pyrimidin-2(3H)-one] | 29 | 
CCCCCCCCCCCCc1cc2cn([C@@H]3CC[C@H](CO)O3)c(=O)nc2o1 [Cf 3156, 3-(2′,3′-dideoxy-ribo-β-L-furanosyl)-6-dodecylfuro[2,3-d]-pyrimidin-2(3H)-one] | 65 | 
CCCCCOCCCCCCCCCc1cc2cn([C@@H]3CC[C@H](CO)O3)c(=O)nc2o1 [Cf 3208, 3-(2′,3′-dideoxy-ribo-β-L-furanosyl)-6-pentyloxynonylfuro[2,3-d]pyrimidin-2(3H)-one] | 24 | potency with respect to vaccinia virus compared to comparative compound Cf2095 [1]: greatly enhanced potency; Measles IC100/μM (b) [2]: 1 to 5 µM; potency with respect to measles virus [2]: significant potency; IC50 (VACV-WR in BSC-1 cells; Orthopoxvirus vaccinia, BSC-1, 72 h): 0.1 µM
CCCCCCCCCc1cc2cn([C@@H]3CC[C@H](CO)O3)c(=O)nc2o1 [Cf 3175, 3-(2′,3′-dideoxy-ribo+L-furanosyl)-6-nonylfuro[2,3-d]pyrimidin-2(3H)-one] | 24 | potency with respect to vaccinia virus compared to comparative compound Cf2095 [1]: greatly enhanced potency; Measles IC100/μM (b) [2]: 5 to 10 µM
CCCCCCCCCCOCCCCc1cc2cn([C@@H]3CC[C@H](CO)O3)c(=O)nc2o1 [Cf 3231, 3-(2′,3′-dideoxy-ribo-β-L-furanosyl)-6-decyloxybutylfuro[2,3-d]pyrimidin-2(3H)-one] | 26 | 
CCCCCCCc1cc2cn([C@@H]3CC[C@H](CO)O3)c(=O)nc2o1 [Cf 3174, 3-(2′,3′-dideoxy-ribo-β-L-furanosyl)-6-septylfuro[2,3-d]pyrimidin-2(3H)-one] | 41 | 
CCCCCCCCCCCCCOCc1cc2cn([C@@H]3CC[C@H](CO)O3)c(=O)nc2o1 [Cf 3232, 3-(2′,3′-dideoxy-ribo-β-L-furanosyl)-6-tridecyloxymethylfuro[2,3-d]pyrimidin-2(3H)-one] | 45 | Measles IC100/μM (b) [2]: 1 to 5 µM; potency with respect to measles virus [2]: significant potency
CCCCc1ccc(-c2cc3cn([C@@H]4CC[C@H](CO)O4)c(=O)nc3o2)cc1 [Cf 3176, 3-(2′,3′-dideoxy-ribo-β-L-furanosyl)-6-(4-n-butylphenyl)[2,3-d]pyrimidin-2(3H)-one] | 44 | 
CCCCCCCCc1cc2cn([C@@H]3CC[C@H](CO)O3)c(=O)nc2o1 [Cf 3154, 3-(2′,3′-dideoxy-ribo-β-L-furanosyl)-6-octylfuro[2,3-d]pyrimidin-2(3H)-one] | 23 | potency with respect to vaccinia virus compared to comparative compound Cf2095 [1]: greatly enhanced potency
COCCCCCCCCCCCCCc1cc2cn([C@@H]3CC[C@H](CO)O3)c(=O)nc2o1 [Cf 3254, 3-(2′,3′-dideoxy-ribo-β-L-furanosyl)-6-methyloxytridecylfuro[2,3-d]pyrimidin-2(3H)-one] | 59 | 
CCCOCCCCCCCCCc1cc2cn([C@@H]3CC[C@H](CO)O3)c(=O)nc2o1 [Cf 3204, 3-(2′,3′-dideoxy-ribo-β-L-furanosyl)-6-propyloxynonylfuro[2,3-d]pyrimidin-2(3H)-one] | 41 | 
CCCCCc1ccc(-c2cc3cn([C@@H]4CC[C@H](CO)O4)c(=O)nc3o2)cc1 [Cf 3177, 3-(2′,3′-dideoxy-ribo-D-L-furanosyl)-6-(4-n-pentylphenyl) [2,3-d]pyrimidin-2(3H)-one] | 47 | 
CCCCCOCCCCCCCCCc1cc2cn([C@@H]3CC[C@H](CO)O3)c(=O)nc2[nH]1 [Cf 3253, 3-(2′,3′-dideoxy-ribo-β-L-furanosyl)-6-pentyloxynonyl-pyrrolo[2,3-d]pyrimidin-2(3H)-one] | 52 | 
CCOCCCCCCCCCc1cc2cn([C@@H]3CC[C@H](CO)O3)c(=O)nc2o1 [Cf 3210, 3-(2′,3′-dideoxy-ribo-O-L-furanosyl)-6-ethyloxynonylfuro[2,3-d]pyrimidin 2(3H)-one] | 72 | 
CCCCOCCCCCCCCCc1cc2cn([C@@H]3CC[C@H](CO)O3)c(=O)nc2o1 [Cf 3207, 3-(2′,3′-dideoxy-ribo-β-L-furanosyl)-6-butyloxynonylfuro[2,3-d]pyrimidin-2(3H)-one] | 29 | 
CCCCCCCCCCc1cc2cn([C@@H]3CC[C@H](CO)O3)c(=O)nc2o1 [Cf 3155, 3-(2′,3′-dideoxy-ribo-β-Lfuranosyl)-6-decylfuro[2,3-d]pyrimidin-2(3H)-one] | 24 | potency with respect to vaccinia virus compared to comparative compound Cf2095 [1]: greatly enhanced potency
CCCCCOCCCCCCCCCc1cc2cn([C@@H]3CC[C@H](CO)O3)c(=O)nc2n1C [Cf 3242, 3-(2′,3′-dideoxy-ribo-β-L-furanosyl)-6-pentyloxynonyl-N-methyl-pyrrolo[2,3-d]pyrimidin-2(3H)-one] | 15 | potency with respect to vaccinia virus compared to comparative compound Cf2095 [1]: greatly enhanced potency; Measles IC100/μM (b) [2]: 5 to 10 µM
